Assay results taken from publication PMC8667043, “First-in-Class Inhibitors of the Ribosomal Oxygenase MINA53” (Journal of Medicinal Chemistry, 2021).

Assays:
HA-tagged MINA53 = biological target: T1, HA-tagged MINA53 (Homo sapiens, UniProt Q8IUF8); experiment: Substrate trapping by anti-HA immunoprecipitation (RPL27A); format: cell-based; conditions: HEK293T, HeLa, U-87MG cells; 100 μM, 18 h
T1 construct: expressed in transfected cells; host or cells: HEK293T, HeLa, U-87MG (transient, pEF6 vector)
Method: Proteins were transferred onto nitrocellulose or PVDF membranes and incubated with rabbit γ-H2AX (#9718, Cell Signaling Technologies, MA) anti-GAPDH (Sc47724, Santa Cruz Biotechnology, Santa Cruz, CA), rabbit anti-RPL27A (Abcam, ab74731), goat anti-RPL8 (Abcam, ab63941), horseradish peroxidase (HRP)-conjugated anti-HA (Roche, 12013819001), and HRP-conjugated anti-β-actin (Abcam, ab-49900).
For immunoprecipitation, the cells were harvested on ice and lysed by rotation for 1 h at 4 °C in JIES buffer. The cell debris was subsequently pelleted by centrifugation (10 min at 21 910g at 4 °C), and the supernatant was incubated overnight at 4 °C with Pierce anti-HA agarose beads (Thermo Scientific, 26181). The next day, the beads were washed 6 times with JIES buffer before the immunoprecipitates were eluted for 15 min at 1400 rpm at room temperature using 1 mg/mL HA peptide (Thermo Scientific, 26184) dissolved in JIES buffer. The eluted samples were then prepared in 1× Laemmli loading buffer (6x: 125 mM Tris-HCl [pH 6.8], 6% (w/v) SDS, 50% (v/v) glycerol, 225 mM dithiothreitol (DTT), and 0.1% (w/v) bromophenol blue) and boiled for 5 min for detection by western blot.
Plasmid DNA transfections were performed using a FuGENE 6 transfection reagent (Promega, E2691). Briefly, a transfection mix of DNA and transfection reagent at a ratio of 1:3 was made up in Opti-MEM (Gibco, 31985070) and incubated for 30 min at room temperature before the complexes were added to the cells. A total of 500 ng of DNA was used per mL of culturing medium. The cells were seeded 24 h prior to transfection, and cell treatments were performed 24 h post-transfection.
Figure S18. MINA53 substrate trapping with inhibitors 9 and 10 in cells. HEK293T (A), HeL a (B) and U-87MG (C) cel ls transiently expressing an empty (EV), wild- type (WT) or catalytically […]
control for 18 h prior toanti -HAimmunoprecipitation (IP). Anti -HA IPs were immunoblotted for RPL27A (17 kDa) and HA. β -Actin was used as loading control. […]

U-87MG cells = experiment: Flow cytometric analysis of cell cycle distribution and Sub-G1 peak (PI staining); format: cell-based, human; conditions: 24 h; for accumulation of cells in the G2/M phase of the cell cycle / percentage of apoptotic cells (Sub-G1), compound alone: 10 μM; for percentage of apoptotic cells (Sub-G1), with doxorubicin: 10 μM compound + doxorubicin 0.5 μM
Method: Cell cycle distribution and apoptosis were assayed by staining floating and adherent cells with propidium iodide ([…] RNase A and 20 μg/mL propidium iodide) for 45 min. Flow cytometric analyses were performed using Epics XL apparatus (Beckman Coulter). Ten thousand events were collected from each sample, and data were processed using Flowing software.

HT-29 colon carcinoma = experiment: MTT cell viability assay; format: cell-based, human; conditions: 72, 96, 120 h, 10 to 100 μM, 10′ to a similar extent as 10
Method: (§1) Human commercially available established cancer cell lines HT-29 colon carcinoma (ATCC, HTB-38), U-87MG glioblastoma (ATCC, HTB-14), and MNK-45 gastric cancer (a gift from Dr. M. Broggini, Mario Negri Institute) were cultured in RPMI medium (Euroclone, Milan, IT) supplemented with 10% inactivated fetal bovine serum (HyClone, Thermo Scientific, South Logan, UT), 1% L-glutamine (Euroclone), and 100 μg/mL penicillin/streptomycin (Euroclone). HEK293T and HeLa cells were cultured in Dulbecco’s Modified Eagle Medium (DMEM, Gibco) supplemented with 10% (v/v) fetal bovine serum (FBS, Sigma) and 100 international units/mL (IU/mL) penicillin and 100 μg/mL streptomycin (Gibco). The cells were routinely tested for mycoplasma contamination and STR-authenticated.
(§2) Twenty-four hours following seeding, exponentially growing cells were treated with the different compounds at concentrations ranging from 10 to 100 μM for 72–120 h. Aqueous DMSO (0.5%, v/v) was used as a control (untreated). Cell viability was determined by the 3-(4,5-dimethylthiazol-2-yl)-2,5-diphenyltetrazolium bromide (MTT) colorimetric assay (Sigma-Aldrich). In summary, exponentially growing cancer cells were seeded in sextuplicate in 96-well culture plates (1.5 × 10^3 cells/well). After 24 h, the compounds were added at concentrations ranging from 10 to 100 μM. The effect of compounds on cancer cell proliferation was assessed by measuring the MTT dye absorbance of the cells as reported.[52] For combination treatments, the cells were treated with each of three compounds, either alone or in combination with doxorubicin. In particular, U-87MG cells were treated with doxorubicin alone or in combination with different MINA53 inhibitors for 24 h. The effect of different compounds or combinations (drug concentration ratio 1:20, doxorubicin: compound) on U-87MG cancer cell viability was assessed by measuring the MTT dye absorbance of cells. The interaction between doxorubicin (Doxo) and different compounds was evaluated based on the combination index (CI) using the CI equation through CalcuSyn software (Biosoft, Cambridge, U.K.). Synergism CI < 0.9, additivity 0.9 < CI < 1.1, antagonism CI > 1.1.

U-87MG malignant glioma = experiment: MTT cell viability assay; format: cell-based, human; conditions: 72, 96, 120 h, 10 to 100 μM, 10′ to a similar extent as 10
Method: as §1, §2

MNK-45 gastric carcinoma = experiment: MTT cell viability assay; format: cell-based, human; conditions: 72, 96, 120 h, 10 to 100 μM, 10′ to a similar extent as 10
Method: as §1, §2

T1 sequence (Q8IUF8 whole entry): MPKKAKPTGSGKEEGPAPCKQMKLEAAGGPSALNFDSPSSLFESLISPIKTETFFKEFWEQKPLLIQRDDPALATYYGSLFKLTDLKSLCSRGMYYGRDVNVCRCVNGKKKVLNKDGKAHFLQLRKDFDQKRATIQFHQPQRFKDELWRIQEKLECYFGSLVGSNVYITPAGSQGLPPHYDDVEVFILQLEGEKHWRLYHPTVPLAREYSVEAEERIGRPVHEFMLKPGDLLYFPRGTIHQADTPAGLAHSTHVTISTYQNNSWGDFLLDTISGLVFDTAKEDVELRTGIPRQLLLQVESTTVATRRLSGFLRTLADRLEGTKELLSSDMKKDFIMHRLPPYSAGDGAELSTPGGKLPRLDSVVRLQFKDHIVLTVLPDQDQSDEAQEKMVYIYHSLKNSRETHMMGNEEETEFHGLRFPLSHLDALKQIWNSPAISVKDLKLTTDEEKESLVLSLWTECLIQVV

SMILES | binding (trapping) of endogenous RPL27A substrate to HA-tagged MINA53 (HA-tagged MINA53) | accumulation of cells in the G2/M phase of the cell cycle (U-87MG cells) | effect on cell viability, HT-29 (HT-29 colon carcinoma) | effect on cell viability, U-87MG (U-87MG malignant glioma) | effect on cell viability, MNK-45 (MNK-45 gastric carcinoma) | percentage of apoptotic cells (Sub-G1), with doxorubicin (U-87MG cells) | percentage of apoptotic cells (Sub-G1), compound alone (U-87MG cells)
O=C(O)c1c[nH]c(=S)[nH]c1=O [compound 1] | not | not | no effect | no effect | no effect |  | 
O=C(O)c1cnc(SCCc2ccccc2)[nH]c1=O [compound 9, 2-(Phenethylthio)-3,4-dihydro-4-oxopyrimidine-5-carboxylic Acid] | increased binding | induced accumulation of cells in the G2/M phase | only a marginal effect | sensitive | sensitive | about 60% | about 30%
O=C(O)c1cnc(SCCCc2ccccc2)[nH]c1=O [compound 10, 2-((3-Phenylpropyl)thio)-3,4-dihydro-4-oxopyrimidine-5-carboxylic Acid] | increased binding | induced accumulation of cells in the G2/M phase | only a marginal effect | sensitive | sensitive | about 60% | about 30%
